≈ marks a conversion by molar mass, not a printed value. Like-named read-outs stand apart in the source and are kept apart here.
Columns and labels:
Test in all cases: in vitro antibacterial activity, standard agar dilution method
Format in all cases: cell-based
[1] = tested on: Enterobacter cloacae NR 2946; details: NR2946, aerobic, read-out: minimum inhibitory concentration (MIC)
[2] = tested on: Alcaligenes faecalis IFO 13111; details: IFO13111, aerobic, read-out: minimum inhibitory concentration (MIC)
[3] = tested on: Klebsiella pneumoniae FDA PCI 602; details: FDAPCI602, aerobic, read-out: minimum inhibitory concentration (MIC)
[4] = tested on: Proteus vulgaris OX19 ATCC 6898; details: ATCC6898, aerobic, read-out: minimum inhibitory concentration (MIC)
[5] = tested on: Escherichia coli NIHJ JC-2; details: NIHJJC2, aerobic, read-out: minimum inhibitory concentration (MIC)
[6] = tested on: Serratia marcescens IFO 12648; details: IFO12648, aerobic, read-out: minimum inhibitory concentration (MIC)
[7] = tested on: Staphylococcus epidermidis IFO 12993; details: IFO12993, aerobic, read-out: minimum inhibitory concentration (MIC)
[8] = tested on: Bordetella bronchiseptica ATCC 4617; details: ATCC4617, aerobic, read-out: minimum inhibitory concentration (MIC)
[9] = tested on: Salmonella typhimurium IFO 12529; details: Salmonella enterica, aerobic, read-out: minimum inhibitory concentration (MIC)
[10] = tested on: Staphylococcus aureus FDA 209P JC-1; details: FDA209P, read-out: minimum inhibitory concentration (MIC)
Escherichia coli NR 2630 = details: NR2630; Escherichia coli NR 2630; aerobic; agar dilution; read-out: minimum inhibitory concentration (MIC)
[11] = tested on: Citrobacter freundii IFO 12681; details: IFO12681, aerobic, read-out: minimum inhibitory concentration (MIC)
[12] = tested on: Staphylococcus aureus NR 2855
[13] = tested on: Enterobacter aerogenes NR 2945; details: Klebsiella aerogenes, NR2945, aerobic, read-out: minimum inhibitory concentration (MIC)
[14] = tested on: Staphylococcus aureus Smith; details: Staphylococcus aureus Smith; aerobic; agar dilution; read-out: minimum inhibitory concentration (MIC)
[15] = tested on: Pseudomonas aeruginosa A3; details: aerobic, read-out: minimum inhibitory concentration (MIC)
[16] = tested on: Bacillus subtilis PCI 219; details: PCI219, aerobic, read-out: minimum inhibitory concentration (MIC)
[17] = tested on: Enterococcus faecalis NR 2943; details: NR2943, aerobic, read-out: minimum inhibitory concentration (MIC)
[18] = tested on: Pseudomonas stutzeri IFO 12695; details: Stutzerimonas stutzeri, IFO12695, aerobic, read-out: minimum inhibitory concentration (MIC)
[19] = tested on: Staphylococcus epidermidis NR 2942; details: NR2942, aerobic, read-out: minimum inhibitory concentration (MIC)
[20] = tested on: Proteus rettgeri ATCC 14505; details: Providencia rettgeri, ATCC14505, aerobic, read-out: minimum inhibitory concentration (MIC)
[21] = tested on: Pseudomonas aeruginosa NR 2950; details: NR2950, aerobic, read-out: minimum inhibitory concentration (MIC)
[22] = Staphylococcus aureus FDA 209P JC-1, aerobic, agar dilution
[23] = NR2855, Staphylococcus aureus NR 2855, aerobic, agar dilution, read-out: minimum inhibitory concentration (MIC)

SMILES	MIC [1]	MIC [2]	MIC [3]	MIC [4]	MIC [5]	MIC [6]	MIC [7]	MIC [8]	MIC [9]	MIC [10, 22]	MIC [11]	MIC [13]	MIC [14]	MIC [15]	MIC [16]	MIC [17]	MIC [18]	MIC [19]	MIC [20]	MIC [21]	also measured
CN1COc2c(N3CCC(O)CC3)c(F)cc3c(=O)c(C(=O)O)cn1c23 [Example 13, 9-fluoro-10-(4-hydroxy-1-piperidyl)-3-methyl-7-oxo-2,3-dihydro-7H-pyrido[3,2,1-ij]-1,3,4-benzoxadiazine-6-carboxylic acid]	0.39 µg/mL (≈ 1.07 µM)	3.13 µg/mL (≈ 8.61 µM)	0.78 µg/mL (≈ 2.15 µM)	0.05 µg/mL (≈ 0.138 µM)	0.39 µg/mL (≈ 1.07 µM)	0.39 µg/mL (≈ 1.07 µM)	0.1 µg/mL (≈ 0.275 µM)	0.78 µg/mL (≈ 2.15 µM)	0.1 µg/mL (≈ 0.275 µM)	0.1 µg/mL (≈ 0.275 µM)	0.39 µg/mL (≈ 1.07 µM)	0.2 µg/mL (≈ 0.55 µM)	0.025 µg/mL (≈ 0.0688 µM)	1.56 µg/mL (≈ 4.29 µM)	≤ 0.0008 µg/mL	3.13 µg/mL (≈ 8.61 µM)	0.1 µg/mL (≈ 0.275 µM)	0.05 µg/mL (≈ 0.138 µM)	0.78 µg/mL (≈ 2.15 µM)	6.25 µg/mL (≈ 17.2 µM)	MIC [12, 23]: 0.05 µg/mL (≈ 0.138 µM)
CN1COc2c(N3CCN(CCO)CC3)c(F)cc3c(=O)c(C(=O)O)cn1c23 [Example 15]	0.1 µg/mL (≈ 0.255 µM)	3.13 µg/mL (≈ 7.98 µM)	0.39 µg/mL (≈ 0.994 µM)	0.025 µg/mL (≈ 0.0637 µM)	0.1 µg/mL (≈ 0.255 µM)	0.39 µg/mL (≈ 0.994 µM)	0.78 µg/mL (≈ 1.99 µM)	0.78 µg/mL (≈ 1.99 µM)	0.05 µg/mL (≈ 0.127 µM)	0.78 µg/mL (≈ 1.99 µM)	0.05 µg/mL (≈ 0.127 µM)	0.05 µg/mL (≈ 0.127 µM)	0.39 µg/mL (≈ 0.994 µM)	0.78 µg/mL (≈ 1.99 µM)	0.05 µg/mL (≈ 0.127 µM)	6.25 µg/mL (≈ 15.9 µM)	0.05 µg/mL (≈ 0.127 µM)	0.78 µg/mL (≈ 1.99 µM)	0.78 µg/mL (≈ 1.99 µM)	3.13 µg/mL (≈ 7.98 µM)	MIC [12, 23]: 0.78 µg/mL (≈ 1.99 µM)
CC(=O)NCC1CCN(c2c(F)cc3c(=O)c(C(=O)O)cn4c3c2OCN4C)C1 (stereo not drawn) [Example 19, 10-[3-(acetylaminomethyl)-1-pyrrolidinyl]-9-fluoro-3-methyl-7-oxo-2,3-dihydro-7H-pyrido[3,2,1-ij]-1,3,4-benzoxadiazine-6-carboxylic acid]	1.56 µg/mL (≈ 3.86 µM)	6.25 µg/mL (≈ 15.5 µM)	6.25 µg/mL (≈ 15.5 µM)	0.39 µg/mL (≈ 0.964 µM)	1.56 µg/mL (≈ 3.86 µM)	3.13 µg/mL (≈ 7.74 µM)	0.39 µg/mL (≈ 0.964 µM)	6.25 µg/mL (≈ 15.5 µM)	1.56 µg/mL (≈ 3.86 µM)	–	1.56 µg/mL (≈ 3.86 µM)	1.56 µg/mL (≈ 3.86 µM)	0.2 µg/mL (≈ 0.495 µM)	6.25 µg/mL (≈ 15.5 µM)	0.05 µg/mL (≈ 0.124 µM)	6.25 µg/mL (≈ 15.5 µM)	0.39 µg/mL (≈ 0.964 µM)	0.39 µg/mL (≈ 0.964 µM)	3.13 µg/mL (≈ 7.74 µM)	25 µg/mL (≈ 61.8 µM)	MIC ([10]; Staphylococcus aureus): 0.39 µg/mL (≈ 0.964 µM); MIC (Escherichia coli NR 2630): 0.39 µg/mL (≈ 0.964 µM); MIC ([12]; Staphylococcus aureus, NR2855, read-out: minimum inhibitory concentration (MIC)): 0.39 µg/mL (≈ 0.964 µM)

Continued, in another order:

MIC [1]	MIC [2]	MIC [3]	MIC [4]	MIC [5]	MIC [6]	MIC [7]	MIC [8]	MIC [9]	MIC [10, 22]	MIC [11]	MIC [13]	MIC [14]	MIC [15]	MIC [16]	MIC [17]	MIC [18]	MIC [19]	MIC [20]	MIC [21]	SMILES	also measured
0.05 µg/mL (≈ 0.118 µM)	0.78 µg/mL (≈ 1.84 µM)	0.2 µg/mL (≈ 0.471 µM)	0.025 µg/mL (≈ 0.0589 µM)	0.05 µg/mL (≈ 0.118 µM)	0.1 µg/mL (≈ 0.236 µM)	0.39 µg/mL (≈ 0.919 µM)	0.39 µg/mL (≈ 0.919 µM)	0.025 µg/mL (≈ 0.0589 µM)	0.39 µg/mL (≈ 0.919 µM)	0.025 µg/mL (≈ 0.0589 µM)	0.025 µg/mL (≈ 0.0589 µM)	0.2 µg/mL (≈ 0.471 µM)	0.39 µg/mL (≈ 0.919 µM)	0.025 µg/mL (≈ 0.0589 µM)	6.25 µg/mL (≈ 14.7 µM)	0.025 µg/mL (≈ 0.0589 µM)	0.39 µg/mL (≈ 0.919 µM)	0.39 µg/mL (≈ 0.919 µM)	3.13 µg/mL (≈ 7.37 µM)	CN1COc2c(N3CCNC(c4ccccc4)C3)c(F)cc3c(=O)c(C(=O)O)cn1c23 (stereo not drawn) [Example 8]	MIC (Escherichia coli NR 2630): 0.013 µg/mL (≈ 0.0306 µM); MIC [12, 23]: 0.39 µg/mL (≈ 0.919 µM)
0.013 µg/mL (≈ 0.0372 µM)	6.25 µg/mL (≈ 17.9 µM)	3.13 µg/mL (≈ 8.96 µM)	≤ 0.0008 µg/mL	0.1 µg/mL (≈ 0.286 µM)	0.78 µg/mL (≈ 2.23 µM)	0.2 µg/mL (≈ 0.573 µM)	1.56 µg/mL (≈ 4.47 µM)	0.0033 µg/mL (≈ 0.00945 µM)	0.2 µg/mL (≈ 0.573 µM)	0.39 µg/mL (≈ 1.12 µM)	0.0065 µg/mL (≈ 0.0186 µM)	0.0033 µg/mL (≈ 0.00945 µM)	6.25 µg/mL (≈ 17.9 µM)	≤ 0.0008 µg/mL	12.5 µg/mL (≈ 35.8 µM)	≤ 0.0008 µg/mL	0.0065 µg/mL (≈ 0.0186 µM)	1.56 µg/mL (≈ 4.47 µM)	12.5 µg/mL (≈ 35.8 µM)	CN1COc2c(N3CCOCC3)c(F)cc3c(=O)c(C(=O)O)cn1c23 [Example 9, 9-Fluoro-3-methyl-10-morpholino-7-oxo-2,3-dihydro-7H-pyrido[3,2,1-ij]-1,3,4-benzoxadiazine-6-carboxylic acid]	MIC (Escherichia coli NR 2630): ≤ 0.0008 µg/mL; MIC [12, 23]: 0.0065 µg/mL (≈ 0.0186 µM)
